From patent US6518252B2, “Method of treating aquatic animals with an antimicrobial agent and chelating agent” (priority 2000, dated 2003)

Columns and labels:
[1] = tested on: Staph. aureus; assay: MIC and FIC of chemical disinfectants and EDTA-Tris; assay type: cell-based, Staphylococcus aureus
Procedure: (§1) A numerical score or Fractional Inhibitory Concentration (FIC) index was determined. The FIC index is equal to the sum of the values of FIC for the individual drugs: [formula]
(§2) An FIC index greater than 1.0 indicated an antagonistic interaction, an FIC index of 1.0 indicated addition, and an FIC index of less than or equal to 0.5 indicated synergism between the two test agents.

[2] = tested on: E. coli V-1; assay: FIC of chemical disinfectants and EDTA-Tris; assay type: cell-based; conditions: chemical disinfectant and EDTA-Tris
Procedure: as §1, §2

[3] = tested on: E. coli Av; assay: FIC of chemical disinfectants and EDTA-Tris; assay type: cell-based; conditions: chemical disinfectant and EDTA-Tris
Procedure: as §1, §2

[4] = tested on: B subtilis; assay: FIC of chemical disinfectants and EDTA-Tris; assay type: cell-based; conditions: chemical disinfectant and EDTA-Tris
Procedure: as §1, §2

[5] = tested on: Gram-positive organisms; assay: EDTA-Tris disinfectant combinations, summary; assay type: cell-based
Procedure: as §1, §2

[6] = tested on: Ps. aeruginosa; assay: MIC and FIC of chemical disinfectants and EDTA-Tris; assay type: cell-based, Pseudomonas aeruginosa
Procedure: as §1, §2

[7] = tested on: Bacillus sp.; assay: MIC of commercial chemical disinfectants or EDTA-Tris; assay type: cell-based; conditions: 1 x stock: EDTA-Tris 5 mM EDTA + 50 mM Tris-HCl, Glutracide 1:200, Magnaphen-100 1:400, BioSentry 904 1:256, Synergize 1:256, hydrogen peroxide 3%
[8] = tested on: S. typhimurium Avian (avian strain); assay: MIC and FIC of chemical disinfectants and EDTA-Tris; assay type: cell-based
Procedure: as §1, §2

[9] = tested on: S. enteritidis; assay: as above; assay type: cell-based
Procedure: as §1, §2

[10] = tested on: S. typhimurium 6578 (parent strain); assay: as above; assay type: cell-based
Procedure: as §1, §2

[11] = tested on: S. typhimurium DT104 (multiple antibiotic resistant strain); assay: as above; assay type: cell-based
Procedure: as §1, §2

[12] = tested on: S. typhimurium TRC1 (mar mutant); assay type: cell-based
Procedure: as §1, §2

[13] = tested on: E. coli; assay: MIC of commercial chemical disinfectants or EDTA-Tris; assay type: cell-based; conditions: 1 x stock solutions as in footnote of Table 5
[14] = tested on: Gram-negative bacteria; assay: EDTA-Tris disinfectant combinations, summary; assay type: cell-based; conditions: most of the Gram-negative bacteria
Procedure: as §1, §2
Fractional inhibitory concentrations for EDTA-Tris disinfectant combinations (synergistic, additive, or antagonistic reactions) were determined for the test organisms. […]

[15] = tested on: P. mirabilis; assay: MIC and FIC of chemical disinfectants and EDTA-Tris; assay type: cell-based, Proteus mirabilis
Procedure: as §1, §2

[16] = 1 x stock solutions as in footnote of Table 5
[17] = chemical disinfectant and EDTA-Tris
[18] = 1 x stock solutions as in footnote of Table 6

SMILES: OO [Hydrogen peroxide]
- MIC [1, 16]: 0.02 dilution of stock solution
- FIC [1, 17]: 1.48
- Type of reaction (FIC class) [1, 17]: B (Antagonistic reaction (FIC > 1.0))
- FIC [2]: 0.53
- Type of reaction (FIC class) [2]: C (Additive reaction (FIC > 0.5 to < 1.0))
- FIC [3]: 0.50
- Type of reaction (FIC class) [3]: A (Synergistic reaction (FIC ˜ 0.5))
- FIC [4]: 1.0
- Type of reaction (FIC class) [4]: B (Additive reaction (FIC > 0.5 to < 1.0))
- Effect of EDTA-Tris on the antimicrobial effect of the disinfectant [5]: did not react uniformly
- MIC [6, 16]: 0.09 dilution of stock solution
- FIC [6, 17]: 0.37
- Type of reaction (FIC class) [6, 17]: C (Synergistic reaction (FIC < 0.5))
- MIC [7]: 0.05 dilution of stock solution
- MIC [8, 18]: 0.005 dilution of stock solution
- FIC [8, 17]: 0.63
- Type of reaction (FIC class) [8, 17]: C (Additive reaction (FIC :> 0.5 to < 1.0))
- MIC [9, 18]: 0.005 dilution of stock solution
- FIC [9, 17]: 0.38
- Type of reaction (FIC class) [9, 17]: C (Synergistic reaction (FIC < 0.5))
- MIC [10, 18]: 0.005 dilution of stock solution
- FIC [10, 17]: 0.5
- Type of reaction (FIC class) [10, 17]: D (Synergistic reaction (FIC <: 0.5))
- MIC [11, 18]: 0.005 dilution of stock solution
- FIC [11, 17]: 0.75
- Type of reaction (FIC class) [11, 17]: C (Additive reaction (FIC :> 0.5 to < 1.0))
- MIC [12, 18]: 0.005 dilution of stock solution
- FIC [12, 17]: 0.5
- Type of reaction (FIC class) [12, 17]: D (Synergistic reaction (FIC <: 0.5))
- MIC [13]: 0.12 dilution of stock solution
- Effect of EDTA-Tris on the antimicrobial effect of the disinfectant [14]: potentiated (synergistic or additive)
- MIC [15, 16]: 0.19 dilution of stock solution
- FIC [15, 17]: 0.37
- Type of reaction (FIC class) [15, 17]: C (Synergistic reaction (FIC < 0.5))
